Here are results for eight molecules from ChEMBL document CHEMBL1201862, “PubChem BioAssay data set” (2004).

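How tested: cells in 96-well plates exposed to compound for 48 hours at five concentrations. GI50 marks 50% less growth.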 Activity calls are given as the source filed them. Rule as the data show it: active = GI50 up to about 1.1 µM and inactive = higher.

Some test systems named below: A498; ACHN; DU-145; HOP-92; HT-29; Hs-578T; IGROV-1; K562; MDA-MB-435; MDA-N; MOLT-4; NCI-H522; OVCAR-3; SF-268; SK-MEL-5; SW-620; U-251; BT-549; RPMI-8226.
Assay in all cases: DTP human tumour cell line panel, 48 h

In general, GI50 refers to the concentration at which growth is held to half of that of the control. In the case of `CC1(C)CC(C)(C)C1=NNC(N)=O`, the GI50 with A498, in the test with ACHN, in the test on DU-145, with HOP-92, in the test with HT-29 and with Hs-578T was > 100 µM (inactive) in each case. Further, the GI50 in the test on IGROV-1, with K562, in the test on MDA-MB-435, with MDA-N, in the test with MOLT-4 and with NCI-H522 was > 100 µM (inactive) each time. For the same molecule, the GI50 in the test on OVCAR-3, in the test on SF-268, with SK-MEL-5, in the test with SW-620 and with U-251 was > 100 µM (inactive) in each case.
Regarding `CC(O)CNC(=O)Nc1c(C(F)(F)F)cc(-c2ccccc2)[nH]c1=O` (configuration not stated), the GI50 in the test with A498, in the test on ACHN, in the test with BT-549, with DU-145, in the test with HOP-92 and with HT-29 was > 100 µM (inactive) each time. Moreover, the GI50 in the test on Hs-578T, in the test on IGROV-1, in the test with K562, in the test with MDA-MB-435, in the test on MOLT-4 and with NCI-H522 was > 100 µM (inactive) throughout. For the same molecule, the GI50 with OVCAR-3, in the test on SF-268, in the test with SK-MEL-5, with SW-620 and in the test on U-251 was > 100 µM (inactive) throughout.
In the case of `C[N+](C)(C)CC(=O)N/N=C(/CC(=O)CC(C1=C(O)c2ccccc2OC1)c1ccccc1)C(=O)Nc1cccc(Cl)c1` (configuration not stated), the GI50 in the test on A498, in the test with ACHN, in the test on BT-549, in the test on DU-145, with HOP-92 and with HT-29 was > 100 µM (inactive) each time. Also, the GI50 in the test on IGROV-1, with K562, in the test on MOLT-4, with NCI-H522, with OVCAR-3 and with RPMI-8226 was > 100 µM (inactive) each time. Besides, the GI50 in the test on SF-268, in the test with SK-MEL-5, in the test with SW-620 and in the test on U-251 was > 100 µM (inactive) each time.
Regarding `N#CC1C(=O)Nc2sc(C(=O)c3ccc(Br)cc3)c(N)c2C12CCCCC2` (configuration not stated), the GI50 was 20.1 µM (inactive) in the test on A498; 35.6 µM (inactive) in the test with ACHN; 27.9 µM (inactive) in the test with BT-549; 23.8 µM (inactive) in the test on DU-145; 33.4 µM (inactive) with HT-29; 20.2 µM (inactive) in the test on IGROV-1. Moreover, the GI50 is 23.2 µM (inactive) in the test on K562; 18.9 µM (inactive) with MDA-MB-435; 17 µM (inactive) with MDA-N; 18.5 µM (inactive) in the test on MOLT-4; 18.3 µM (inactive) with NCI-H522; 9.66 µM (inactive) with OVCAR-3. Also, the GI50 was 19.9 µM (inactive) with RPMI-8226; 22.7 µM (inactive) in the test on SF-268; 14.6 µM (inactive) with SK-MEL-5; 16.6 µM (inactive) with SW-620; 25.1 µM (inactive) with U-251.
Consider `O=[N+]([O-])/C(C(Cl)=C(Cl)Cl)=C(/Cl)SCc1ccccc1`, for which the GI50 in the test with A498 is 24.3 µM (inactive); in the test with ACHN, 2.89 µM (inactive); with DU-145 it was 17.3 µM (inactive); with HOP-92, 4.33 µM (inactive); in the test with HT-29, 11.5 µM (inactive); with Hs-578T, 4.48 µM (inactive). The GI50 with IGROV-1 is 20.7 µM (inactive); in the test on K562, 1.15 µM (inactive); with MDA-MB-435 it was 2.35 µM (inactive); in the test with MDA-N it was 1.84 µM (inactive); in the test on MOLT-4, 0.393 µM (active); with NCI-H522, 2.78 µM (inactive). The GI50 is 3.66 µM (inactive) in the test with OVCAR-3; 0.889 µM (active) with RPMI-8226; 12.4 µM (inactive) in the test with SF-268; 8.43 µM (inactive) with SK-MEL-5; 2.18 µM (inactive) in the test with SW-620; 8.04 µM (inactive) in the test on U-251.
Consider `NN/C(=N\S(=O)(=O)c1cc(S(=O)(=O)c2ccccc2)cs1)Nc1ccc(Cl)cc1`, for which the GI50 in the test with A498 was 33.8 µM (inactive); in the test with ACHN, 27.5 µM (inactive); with BT-549 it was 31.2 µM (inactive); in the test on DU-145, 26.1 µM (inactive); in the test with HOP-92, 33.3 µM (inactive); in the test on HT-29, 36.1 µM (inactive). Further, the GI50 with IGROV-1 is 25.9 µM (inactive); in the test with K562, 18.7 µM (inactive); in the test on MDA-N, 20.5 µM (inactive); in the test on MOLT-4 it was 18.6 µM (inactive); in the test on NCI-H522, 13.2 µM (inactive); in the test with OVCAR-3, 20.3 µM (inactive). The GI50 with RPMI-8226 is 22.7 µM (inactive); with SF-268, 19.9 µM (inactive); in the test with SK-MEL-5, 16.9 µM (inactive); in the test on SW-620, 47.5 µM (inactive); with U-251, 23.5 µM (inactive).
Turning to `c1cc(-c2ccc(-c3ccsc3)s2)cs1`, the GI50 is 46.6 µM (inactive) in the test on A498; 35.9 µM (inactive) in the test on ACHN; > 100 µM (inactive) in the test with DU-145; > 100 µM (inactive) in the test with HOP-92; 39.5 µM (inactive) in the test with HT-29; 40.5 µM (inactive) in the test with Hs-578T. Moreover, the GI50 was 80.2 µM (inactive) in the test with IGROV-1; > 100 µM (inactive) in the test on K562; > 100 µM (inactive) in the test on MDA-MB-435; > 100 µM (inactive) in the test with MDA-N; 70.6 µM (inactive) with MOLT-4; > 100 µM (inactive) with NCI-H522. Further, the GI50 in the test on OVCAR-3 is > 100 µM (inactive); in the test on RPMI-8226, > 100 µM (inactive); in the test on SF-268, > 100 µM (inactive); in the test with SK-MEL-5, > 100 µM (inactive); in the test on SW-620 it was 44.3 µM (inactive); in the test with U-251 it was 19.5 µM (inactive).
With `CC(C)[Si](OC1=C(c2ccccc2)C(NC(=O)/C=C/c2ccc([N+](=O)[O-])cc2)CCC1)(C(C)C)C(C)C` (configuration not stated), the GI50 in the test with A498, in the test on BT-549, in the test with DU-145, with HOP-92, with HT-29 and in the test on Hs-578T was > 100 µM (inactive) each time. Further, the GI50 in the test on IGROV-1, in the test with K562, with MDA-MB-435, in the test on MOLT-4, in the test with NCI-H522 and in the test with OVCAR-3 was > 100 µM (inactive) throughout. Also, the GI50 in the test with RPMI-8226 was 9.71 µM (inactive); in the test with SF-268, > 100 µM (inactive); in the test on SK-MEL-5 it was > 100 µM (inactive); with SW-620 it was > 100 µM (inactive); with U-251, > 100 µM (inactive).
